The values that follow come from US20250388597A1, “BIFUNCTIONAL PHOTOCROSSLINKING PROBES FOR COVALENT CAPTURE OF PROTEIN-NUCLEIC ACID COMPLEXES IN CELLS” (UNIVERSITY OF SOUTHERN CALIFORNIA, priority 2022, published 2025).

Entries after “also recorded” stand apart in the source; their conditions may differ.

The subject of assay [1] is double stranded DNA and RNA. As to conditions: cited from earlier work; for efficiency of covalent crosslinking to DNA: long-wavelength (˜360 nm) UV illumination.
The target of a further assay is T1, MEF2A/DNA complex (Homo sapiens, UniProt Q02078).
T1 construct: human MEF2A DBD (residues 2-95); made in house
T1 sequence (Q02078 2-95): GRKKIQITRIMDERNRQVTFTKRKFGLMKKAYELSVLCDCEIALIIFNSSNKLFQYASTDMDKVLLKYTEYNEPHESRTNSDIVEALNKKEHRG
The experiment in a line: In vitro photo-crosslinking of assembled MEF2/DNA complex, read on denaturing SDS/urea gel or agarose gel. The format is biochemical. An excerpt:
In vitro assays have confirmed the success and the efficiency of the demo probe (AMT-LC-SDA) in crosslinking double strand DNA of various contents and DNA-binding protein human myocyte enhancer factor 2A (MEF2A) (1-95 aa) (FIG. 5C-FIG. 5E). The solid crosslinking is confirmed for the probe with UV photo crosslinking conditions by denaturing or digestive approaches such as running with 8.3 M urea gel, SDS gel, combined with sample with overnight digestion of proteinase K at 65 Celsius and denatured at high temperature of 95 Celsius with SDS loading dye. […] Under these harsh evaluation conditions, the protein got digested on the crosslinking complex thoroughly, yet the remaining crosslinked amino acids residuals still have made the DNA to be in a larger size and shifted clearly compared to other controls, which is indicated by the bold shaped arrow. Agarose gel was also used for its bigger pore size to estimate the crosslinking efficiency (UV 2 hrs), estimated by the amount of the left free DNA, our probe has reached around 30-60% efficiency (FIG. 5E), which is much higher than the UV-initiated protein DNA crosslinking without the use of a probe (10-20%) as reported in Nature Communications, volume 11, Article number: 3019 (2020). […] This further supports the idea of applying this probe for replacement of formaldehyde, it crosslinks the protein only within the proximity of nucleic acids, thereby largely reducing the random protein-protein crosslinking noise and helps to preserve the native state of protein epitopes.
The BFPX probe 4AMT-LC-SDA was synthesized with good yield by the NHS-amine chemistry using psoralen and diazirine derivatives (FIG. 5A, FIG. 5B). To test its photo crosslinking ability, human transcription factor MEF2A (the MADS-box/MEF2 domain) and double strand DNA containing a MEF2 binding site were used. We first used electrophoresis mobility shift assay (EMSA) to validate the activity of the purified recombinant MEF2A DNA-binding domain. After finding out the optimal protein to DNA ratio, the in vitro assembled MEF2/DNA complex was then subject to photocrosslinking in the presence or absence of the 4AMT-LC-SDA probe with or without UV illumination. Multiple other control experiments were carried out in parallel to test the specificity of photocrosslinking between the DNA and MEF2. Specifically, parameters such as protein/DNA amounts (1:[…]), ratio, UV time (10 m to 4 hrs), wavelength (320 to 360 nm), LV source (mercury long lamp, LED) and their distance to the reaction mixture have been optimized along the course. The MEF2 Protein and DNA were incubated first to mimic an in vivo binding mode and stoichiometry, and then the mixture was incubated with our 4AMT-LC-SDA probe to undergo UV illumination. The results were evaluated by running denaturing gels (SDS in FIG. 5D, or Urea in FIG. 5C) against the high temperature denatured reaction mixtures and checking the respective protein (silver stain) or DNA (FAM label) signals. To further rule out any other possible false positiveness during loading, proteinase K digestion was applied to all the samples including the negative controls with SDS at 65 degrees.

Another assay addresses T2, NFAT1/DNA complex (Homo sapiens, UniProt Q13469).
T2 construct: human NFAT1 protein (residue 399-676, NFAT1-DBD)
T2 sequence (Q13469 399-676): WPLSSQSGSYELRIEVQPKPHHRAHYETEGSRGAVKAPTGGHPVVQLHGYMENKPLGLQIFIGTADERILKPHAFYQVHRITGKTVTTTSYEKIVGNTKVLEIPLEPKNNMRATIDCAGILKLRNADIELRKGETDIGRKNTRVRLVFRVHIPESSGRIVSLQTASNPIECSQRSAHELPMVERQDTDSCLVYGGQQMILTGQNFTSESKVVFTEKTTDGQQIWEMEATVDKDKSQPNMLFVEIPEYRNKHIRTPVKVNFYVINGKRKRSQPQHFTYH
In words: In vitro photo-crosslinking of assembled NFAT1/DNA complex, denaturing SDS gel. The format is biochemical. To be noted: for formation of covalent NFAT1/DNA crosslinked complex stable under denaturing SDS-PAGE: probe + UV 365 nm, 2% SDS, boil 10 min. The protocol:
The probe binding and UV crosslinking were carried out as described in FIG. 5G and FIG. 7. The crosslinked complexes (lane 3 and lane 6) were further treated with DTT (100 mM, heat 50 degree C. for 30 min). The reaction mixtures were run on SDS gel and visualized by FAM fluorescence for DNA (top) and by Coomassie blue stain for protein (bottom) as described in FIG. 7. FIG. 7 depicts denaturing SDS gel analysis of covalent capture of in vitro assembled MEF2/DNA and NFAT1/DNA complexes by the BFPX probe, SPB-AAD. […] The protein/DNA complexes are incubated at room temperature for 30 min, and treated with various combination of BFPX probe (SPB-AAD) and UV illumination as described in FIG. 5G. […] The reaction mixtures were added SDS loading dye (2% SDS), boil for 10 min, and run on SDS gel (Bio-Rad Any Kd gradient gel). The same gel was visualized by FAM fluorescence for DNA (top) and by Coomassie blue stain for protein (bottom). FIG. 8C depicts denaturing SDS gel analysis of covalent capture of in vitro assembled MEF2/DNA and NFAT1/DNA complexes by the BFPX probe, SPB-PEG3-AAD. […] The reaction mixtures were run on SDS gel and visualized by FAM fluorescence for DNA (top) and by Coomassie blue stain for protein (bottom) as described in FIG. 7. […] Typically protein and DNA are mixed to bind at room temperature for 30 min, followed by addition of BFPX probes for an additional 15 min and then UV illumination. In the case of FA treatment, the reaction time is 10 min at room temperature and then quenched by 250 mM glycine. […] The UV illumination (as indicated by a positive sign) was carried out using a LED Chip (21.4 mm×21.4 mm, 365-370 nm, 30 Watt, sample distance 2 cm, exposure time 2-15 min at 4 degree C., here the exposure time is 15 min). […] The small amount of single stranded DNA is due to incomplete annealing. The higher smearing bands are most likely non-specific protein complexes. Neither of these experimental imperfections affected the main conclusion of this experiment because the double stranded-DNA bands and the specific NFAT-DNA complex bands (the middle sharp bands) are well defined and can be monitored without the interference of the other bands. […] The gel was visualized by Cy5 fluorescence for DNA. FIG. 12E depicts further characterization of BFPX crosslinking of NFAT1/DNA complexes using different DNA substrates and staining techniques. Two unlabeled DNA substrates containing a core NFAT-binding site and different flanking bases and sequence lengths ([…] ID NO: 4), 21 mer, c2: [NT] ID NO: 5), 16 mer) were used to bind the NFAT1-DBD as described in FIG. 12C. […] The reactions were then analyzed by SDS PAGE under denaturing condition as described in FIG. 12D. Because the DNA is unlabeled, the gel was stained using either cyanine-based dye (SYBR Safe) or Coomassie Blue stain (CB). […] The different size of the NFAT-c1DNA complexes (lane 2) and NFAT-c2DNA complexes (lane 4) was resolved by loading reactions of lane 2 (2a, 2b and 2c) and lane 4 (4a, 4b and 4c) as triplicates side-by-side on the same gel (lower panel) using either SYBR and CB stain. FIG. 12F depicts time course of BFPX crosslinking of NFAT1/DNA complexes. […] The reactions at different time points were then analyzed on SDS gel as described in FIG. 12D. […] When the UV exposure time is longer than 5 min, a significant amount of crosslinked NFAT-DNA complex can be formed with UV illumination without SPB-AAD.

For a further assay, the target named is T3, DNA binding by NFAT1 (Homo sapiens, UniProt Q13469).
T3 construct: human NFAT1 protein (residue 399-676, NFAT1-DBD)
T3 sequence (Q13469 399-676): T2 sequence (Q13469 399-676)
The experiment in a line: Native EMSA of the effect on DNA binding by NFAT1. The format is biochemical. To be noted: FIG. 12C; increasing concentrations; probes with UV 365 nm 15 min; compared to control lane 3. For orientation: Mobility shift assays separate free from complexed probe on a gel.

In a further assay the target is T4, Nkx2.5/DNA complex (Homo sapiens, UniProt P52952).
T4 construct: human Nkx2.5 DBD (the homeodomain); made in house
T4 sequence (P52952 138-197 limits assumed, one chain of several): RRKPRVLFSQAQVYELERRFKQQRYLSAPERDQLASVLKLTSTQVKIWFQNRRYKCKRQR
In words: BFPX crosslinking of Nkx2.5/DNA complexes, SDS PAGE. As to conditions: denaturing SDS PAGE; probes with UV. The format is biochemical. The protocol: FIG. 12H depicts BFPX crosslinking of Nkx2.5/DNA complexes. […] The various treatment combinations were list above the gel. The reactions were then analyzed by SDS PAGE under denaturing condition as described in FIG. 12D.

The next assay has as its target T5, p53/DNA complex (Homo sapiens, UniProt P04637).
T5 construct: the human tumor suppressor p53 DBD; made in house
The experiment in a line: BFPX crosslinking of p53/DNA complexes, SDS PAGE. The format is biochemical. To be noted: denaturing SDS PAGE; probes with UV; vs no-protein controls. The protocol:
FIG. 12I depicts BFPX crosslinking of p53/DNA complexes. The binding reactions between the human tumor suppressor p53 DBD and a 37 mer Cy5 labeled DNA containing a consensus p53 tetramer binding site (5′-/5Cy5/-[…]-3′, (SEQ ID NO: 8)) were set up and treated with BFPX probes and UV illumination as described in FIG. 12C. The various treatment combinations were list above the gel. The reactions were then analyzed by SDS PAGE under denaturing condition as described in FIG. 12D. […] Because p53 bind this this DNA substrate as a tetramer, crosslinked p53/DNA complexes may contain one or more p53 protein molecules. While the monomeric p53/DNA complex appears to be the dominant crosslinked protein-DNA complexes, higher-molecule weight species were visible in SDS gel, which may correspond to crosslinked higher-order p53/DNA complex.

T5 sequence (P04637 102-292 limits assumed, one chain of several): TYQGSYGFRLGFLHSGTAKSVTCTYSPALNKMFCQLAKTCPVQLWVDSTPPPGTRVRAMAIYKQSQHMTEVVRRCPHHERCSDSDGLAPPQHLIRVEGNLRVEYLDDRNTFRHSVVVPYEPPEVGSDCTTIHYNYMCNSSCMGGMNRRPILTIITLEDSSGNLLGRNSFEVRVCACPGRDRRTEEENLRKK
Description for DNA binding by NFAT1: All binding reactions contain 10 μM 27 mer dsDNA (5′6-FAM labeled) with a NFAT-binding site, and various combinations of NFAT1 protein (14 μM), FA (1% v/v), 4AMT-LC-SDA (20 μM), with or without UV illumination (365 nm, LED, 30 Watt, sample distance 2 cm, exposure time 15 min at 4 degree C.). 10 μl of the binding reaction is run on a 10% PAGE 0.5×TBE gel. The same gel was visualized by FAM fluorescence for DNA (top) and by Coomassie blue stain for protein (bottom). The higher smearing bands in lane 3, 8, 9, and 10 are most likely non-specific protein complexes often seen when an excessive amount of protein is used to ensure all DNA is bound.
The binding reactions were performed in a buffer of 20 mM Hepes pH 7.6, 150 mM NaCl, 1 mM DTT, 12% glycerol. Typically protein and DNA are mixed to bind at room temperature for 30 min, followed by addition of BFPX probes for an additional 15 min and then UV illumination. In the case of FA treatment, the reaction time is 10 min at room temperature and then quenched by 250 mM glycine. When included (as indicated by a positive sign), the binding reaction contains 10 μM 27 mer dsDNA (Cy5-labeled) with a NFAT-binding site (the antigen receptor response element 2, ARRE2, from the IL-2 promoter, 5′-Cy5-[sequence]-3′ (SEQ ID NO: 2), the complementary strand is not labeled), 24 μM of the DNA binding domain (DBD) of human NFAT1 protein (residue 399-676, NFAT1-DBD). The UV illumination (as indicated by a positive sign) was carried out using a LED Chip (21.4 mm×21.4 mm, 365-370 nm, 30 Watt, sample distance 2 cm, exposure time 2-15 min at 4 degree C., here the exposure time is 15 min). Half of the binding reaction (7.5 μl) was run on a 10% PAGE 0.5×TBE gel and visualized by Cy5 fluorescence on DNA. The small amount of single stranded DNA is due to incomplete annealing. The higher smearing bands are most likely non-specific protein complexes. Neither of these experimental imperfections affected the main conclusion of this experiment because the double stranded-DNA bands and the specific NFAT-DNA complex bands (the middle sharp bands) are well defined and can be monitored without the interference of the other bands.
The presence of both DNA and protein in the same shifted band can be checked by the FAM fluorescence signal (top) and Coomassie stain (bottom), respectively (free NFAT is positively charged and not observable under the EMSA condition).

In the case of `Cc1oc2c(C)c3oc(=O)cc(C)c3cc2c1CN` [4AMT, 4′-aminomethyltrioxsalen], the “efficiency of covalent crosslinking to DNA” value in assay [1] was “up to 80%”.
On to `Cc1oc2c(C)c3oc(=O)cc(C)c3cc2c1CNC(=O)CCSSCCNC(=O)CCC1(C)N=N1` [4AMT-SDAD], for which the “release of crosslinked MEF2/DNA complexes by reductive cleavage” value on MEF2A/DNA complex (probe 10-100 μM, UV 15 min, 200 mM TCEP at 37° C. overnight) is given as “can be released by reductive cleavage of the disulfide bond”. For the same compound, the “formation of covalent MEF2/DNA crosslinked complex” value on MEF2A/DNA complex (probe + UV, denaturing gel) was “highly efficient crosslinking”. The “effect of DTT treatment on the crosslinked NFAT-DNA complex” value on NFAT1/DNA complex (25 μM probe, DTT 100 mM, 50 degree C., 30 min, FIG. 5H) is on record as “reduced significantly”. In addition, on NFAT1/DNA complex (listed as 4AMT-LC-SDAD), the “formation of covalent NFAT1/DNA crosslinked complex stable under denaturing SDS-PAGE” value is reported as “highly efficient crosslinking; also recorded: crosslinked NFAT to its DNA substrate efficiently”.
`O=c1ccc2cc3ccoc3cc2o1` [Psoralen, psoralen]: in assay [1], the “affinity for double stranded DNA and RNA” value is “μM (Kd) affinity”; the “efficiency of covalent crosslinking to DNA” value is “up to 80%”.
As to `CC1(CCC(=O)NCCCCCC(=O)NCCCCNCCCNC(=O)CCCOc2c3occc3cc3ccc(=O)oc23)N=N1` [SPB-Spermidine-AD, 6-(3-(3-methyl-3H-diazirin-3-yl)propanamido)-N-(4-((3-(4-((7-oxo-7H-furo[3,2-g]chromen-9-yl)oxy)butanamido)propyl)amino)butyl)hexanamide], at NFAT1/DNA complex, the “apparent crosslinking efficiency (intensity of the complex band over the total DNA intensity)” value is 22.5%, the “crosslinking efficiency normalized against the total protein/DNA complex” value is about 47% and the “formation of covalent NFAT1/DNA crosslinked complex stable under denaturing SDS-PAGE” value is given as “dosage dependent crosslinking of NFAT1/DNA complexes”. The “effect on the binding of NFAT1 to DNA” value at DNA binding by NFAT1 is on record as “little or no effect”. On Nkx2.5/DNA complex, the “crosslinking of the Nkx2.5/DNA complex” value is “significant crosslinking of the Nkx2.5/DNA complex”. Also, on p53/DNA complex, the “crosslinking of the p53/DNA complex” value is “significant crosslinking of the p53/DNA complex”.
